Data reported in ChEMBL document CHEMBL1146484, “Current developments in the discovery and design of new drug candidates from plant natural product leads” (J Nat Prod, 2004).
In brackets after ≈: the same amount, converted by molar mass. Each block holds one molecule with its values, some of them ahead of it. Activity calls are given as the source filed them. The rule behind the calls is not given here.

Columns and labels:
[1] = system: Human immunodeficiency virus; test: Antiviral activity against HIV; assay type: functional, organism-based; conditions: Human immunodeficiency virus 1
[2] = Inhibition of tubulin polymerization
[3] = biological target: DNA topoisomerase 2-alpha (Homo sapiens) (UniProt P11388); test: Inhibition of topoisomerase 2
DNA topoisomerase 2-alpha (Homo sapiens), sequence (P11388 whole entry): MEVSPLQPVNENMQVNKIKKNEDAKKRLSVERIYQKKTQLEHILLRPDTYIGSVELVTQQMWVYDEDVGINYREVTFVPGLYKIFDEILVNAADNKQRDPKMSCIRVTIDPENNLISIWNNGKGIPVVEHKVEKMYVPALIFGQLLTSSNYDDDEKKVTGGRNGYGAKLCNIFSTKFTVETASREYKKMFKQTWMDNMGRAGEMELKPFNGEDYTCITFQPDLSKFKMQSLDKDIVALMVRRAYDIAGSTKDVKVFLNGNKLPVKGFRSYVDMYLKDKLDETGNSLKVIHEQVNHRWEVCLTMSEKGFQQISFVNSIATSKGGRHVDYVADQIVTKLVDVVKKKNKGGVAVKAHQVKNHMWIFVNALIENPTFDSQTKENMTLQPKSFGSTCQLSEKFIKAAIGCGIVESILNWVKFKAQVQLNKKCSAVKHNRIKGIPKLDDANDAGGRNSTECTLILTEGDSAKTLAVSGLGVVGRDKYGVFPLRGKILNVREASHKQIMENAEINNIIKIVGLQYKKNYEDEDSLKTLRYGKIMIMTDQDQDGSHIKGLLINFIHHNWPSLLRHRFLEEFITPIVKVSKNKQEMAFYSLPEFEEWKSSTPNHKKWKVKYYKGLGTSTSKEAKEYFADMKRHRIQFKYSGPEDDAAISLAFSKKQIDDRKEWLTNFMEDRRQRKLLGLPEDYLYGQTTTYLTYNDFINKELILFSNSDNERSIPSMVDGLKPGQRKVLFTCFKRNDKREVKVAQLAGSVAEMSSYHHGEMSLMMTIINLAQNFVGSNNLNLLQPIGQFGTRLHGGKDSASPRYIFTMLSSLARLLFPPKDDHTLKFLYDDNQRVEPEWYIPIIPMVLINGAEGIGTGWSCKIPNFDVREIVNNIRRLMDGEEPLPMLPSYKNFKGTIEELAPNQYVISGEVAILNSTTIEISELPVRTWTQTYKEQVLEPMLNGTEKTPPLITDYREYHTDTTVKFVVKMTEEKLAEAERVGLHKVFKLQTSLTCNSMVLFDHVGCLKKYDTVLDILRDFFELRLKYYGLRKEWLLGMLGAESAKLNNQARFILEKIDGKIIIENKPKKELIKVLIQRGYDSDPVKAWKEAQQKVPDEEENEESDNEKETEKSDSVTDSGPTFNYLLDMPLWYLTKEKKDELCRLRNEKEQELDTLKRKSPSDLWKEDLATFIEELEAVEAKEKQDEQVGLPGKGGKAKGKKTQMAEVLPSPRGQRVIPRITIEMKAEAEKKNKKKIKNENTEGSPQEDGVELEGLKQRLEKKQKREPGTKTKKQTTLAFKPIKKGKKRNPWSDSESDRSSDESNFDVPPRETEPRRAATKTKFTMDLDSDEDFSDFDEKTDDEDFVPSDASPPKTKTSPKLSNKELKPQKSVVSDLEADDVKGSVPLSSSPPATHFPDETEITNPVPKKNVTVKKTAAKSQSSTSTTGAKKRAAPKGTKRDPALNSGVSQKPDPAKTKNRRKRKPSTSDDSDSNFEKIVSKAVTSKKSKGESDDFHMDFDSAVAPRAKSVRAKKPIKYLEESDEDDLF

MCF7 = test: Cytotoxicity against human MCF7 cells; assay type: functional; conditions: for EC50: read-out: ED50 (the source's name)
CAKI-1 = test: Cytotoxicity against human Caki1 cells; assay type: functional; conditions: read-out: ED50 (the source's name)
MOLT-4 = test: Cytotoxicity against human MOLT4 cells; assay type: functional
KB = test: Cytotoxicity against human KB cells; assay type: functional; conditions: for IC50: read-out: ID50 (the source's name); for CC50: read-out: LD50 (the source's name); for EC50: read-out: ED50 (the source's name)
[4] = Cytotoxicity against human NCI60 cells; assay type: functional; conditions: for TGI: read-out: pGI100 (converted)
[5] = biological target: DNA topoisomerase 2-alpha (Homo sapiens) (UniProt P11388); test: Inhibition of human DNA topoisomerase 2
[6] = biological target: DNA topoisomerase 2-alpha (Homo sapiens) (UniProt P11388); test: Inhibition of human DNA topoisomerase 2 assessed as DNA cleavage at 20 uM
HCT-8 = test: Cytotoxicity against human HCT8 cells; assay type: functional; conditions: read-out: ED50 (the source's name)
A549 = test: Cytotoxicity against human A549 cells; assay type: functional; conditions: read-out: ED50 (the source's name)
SK-MEL-2 = test: Cytotoxicity against human SK-MEL-2 cells; assay type: functional; conditions: read-out: ED50 (the source's name)
[7] = Cytotoxicity against human melanoma cells; assay type: functional; conditions: Melanoma cell
[8] = Cytotoxicity against human renal cancer cells; assay type: functional; conditions: Cancer cell lines
Mus musculus = test: Toxicity in ip dosed nude mouse; assay type: organism-based; conditions: in vivo
RPMI-7951 = test: Cytotoxicity against human RPMI7951 cells; assay type: functional; conditions: read-out: ED50 (the source's name)

EC50 [1]: 1.7 µg/mL
Compound: CC1(C)CC[C@]2(C(=O)O)CC[C@]3(C)C(=CC[C@@H]4[C@@]5(C)CC[C@H](O)C(C)(C)[C@@H]5CC[C@]43C)[C@@H]2C1 [OLEANOLIC_ACID]

EC50 [1]: 0.4 nM
Compound: CC1(C)Oc2ccc3ccc(=O)oc3c2[C@@H](OC(=O)C23CCC(C)(C(=O)O2)C3(C)C)[C@H]1OC(=O)C12CCC(C)(C(=O)O1)C2(C)C (stereo partly drawn)

Compound: COc1cc2c(c(OC)c1OC)-c1ccc(OC)c(=O)cc1[C@@H](NC(C)=O)CC2 [COLCHICINE]
IC50 [2]: 650 nM

EC50 [1]: 1.2 µg/mL
Compound: COc1c2c(cc3c1-c1c(cc4c(c1OC)OCO4)C[C@H](C)[C@H](C)C3)OCO2 [SCHISANDRIN C]

IC50 [2]: 560 nM
Compound: COc1cc2c(c(OC)c1OC)-c1ccc(SC)c(=O)cc1[C@@H](OC(C)=O)CC2

EC50 [1]: 0.5 µg/mL
Compound: COc1c2c(cc3c1-c1c(cc4c(c1OC)OCO4)[C@H](OC(=O)c1ccccc1)[C@@](C)(O)[C@@H](C)C3)OCO2 [SCHISANTHERIN D]

EC50 [1]: 1300 nM
Compound: CC(=O)O[C@@H]1[C@H](OC(=O)CC(C)C)c2c(ccc3ccc(=O)oc23)OC1(C)C [SUKSDORFIN]

IC50 [2]: 560 nM
Compound: COc1cc2c(c(OC)c1OC)-c1ccc(SC)c(=O)cc1[C@@H](O)CC2

EC50 [1]: 0.00016 nM
Compound: Cc1cc(=O)oc2c3c(ccc12)OC(C)(C)[C@H](OC(=O)C12CCC(C)(C(=O)O1)C2(C)C)[C@@H]3OC(=O)C12CCC(C)(C(=O)O1)C2(C)C (stereo partly drawn)

Activity [3]: Active
Compound: CC(=O)N[C@H]1CCc2cc(O)c(O)c(O)c2-c2ccc(NC(=O)c3ccc(Cl)cc3)c(=O)cc21
EC50 (MCF7): 0.48 µg/mL (≈ 0.998 µM) | EC50 (CAKI-1): 0.98 µg/mL (≈ 2.04 µM)

Compound: COc1cc([C@@H]2c3cc4c(cc3[C@@H](Nc3ccc(NC(=O)c5cc([N+](=O)[O-])cn5C)cc3)[C@H]3COC(=O)[C@H]23)OCO4)cc(OC)c1O
GI50 (MOLT-4): < 10 nM | IC50 (KB): 40 nM | CC50 (KB): 150 nM | IC100 [3]: 12.5 µM | GI50 (MCF7): < 10 nM

EC50 [1]: < 0.35 nM
Compound: C=C(C)[C@@H]1CC[C@]2(C(=O)O)CC[C@]3(C)[C@H](CC[C@@H]4[C@@]5(C)CC[C@H](OC(=O)CC(C)(C)C(=O)O)C(C)(C)[C@@H]5CC[C@]43C)[C@@H]12 [BEVIRIMAT]

EC50 [1]: 0.006 µg/mL
Compound: COc1cc2c(c(OC)c1OC)-c1c(cc3c(c1OC)OCO3)[C@H](OC(=O)c1ccccc1)[C@@](C)(O)[C@@H](C)C2 [GOMISIN G]

Compound: COc1cc2c(c(OC)c1OC)-c1ccc(SC)c(=O)cc1C(=O)CC2 [THIOCOLCHICONE]
IC50 [2]: 560 nM

Compound: Cc1ccc2c(=O)cc(-c3cccc(F)c3)[nH]c2n1
GI50 [4]: 269 nM | TGI [4]: 72400 nM

Compound: COc1cc([C@@H]2c3cc4c(cc3[C@@H](Nc3ccccc3)[C@H]3COC(=O)[C@H]23)OCO4)cc(OC)c1O
ID50 [5]: 50000 nM | inhibition [6]: 125%

Activity [3]: Active
Compound: CNc1ccc2c(cc1=O)[C@@H](NC(C)=O)CCc1cc(O)c(O)c(O)c1-2
EC50 (MCF7): 0.36 µg/mL (≈ 1.01 µM) | EC50 (CAKI-1): 0.72 µg/mL (≈ 2.02 µM)

Compound: COc1cc([C@@H]2c3cc4c(cc3[C@@H](O[C@@H]3O[C@@H]5CO[C@@H](C)O[C@H]5[C@H](O)[C@H]3O)[C@H]3COC(=O)[C@H]23)OCO4)cc(OC)c1O [ETOPOSIDE]
IC50 (KB): 200 nM | CC50 (KB): 3000 nM | IC100 [3]: 100 µM

Compound: COc1cccc([C@@H]2CC(=O)c3cc(N4CCCC4)ccc3N2)c1
EC50 (HCT-8): 0.008 µg/mL (≈ 0.0248 µM) | EC50 (KB): 0.008 µg/mL (≈ 0.0248 µM) | EC50 (A549): 0.008 µg/mL (≈ 0.0248 µM) | EC50 (SK-MEL-2): 0.008 µg/mL (≈ 0.0248 µM) | EC50 (MCF7): 0.008 µg/mL (≈ 0.0248 µM) | EC50 (CAKI-1): 0.008 µg/mL (≈ 0.0248 µM)

Compound: O=c1cc(-c2ccccc2F)[nH]c2ccc(N3CCCC3)cc12
GI50 [7]: ≤ 10 nM | GI50 [8]: 22.4 nM

IC50 [2]: 560 nM
Compound: COc1cc2c(c(OC)c1OC)-c1ccc(SC)c(=O)cc1[C@@H](OC(=O)c1ccncc1)CC2

EC50 [1]: < 0.1 µg/mL
Compound: CC1(C)C=C2[C@H]3CC[C@@H]4[C@@]5(C)CCC(=O)C(C)(C)[C@@H]5CC[C@@]4(C)[C@]3(C)CC[C@@]2(C(=O)O)CC1 [MORONIC ACID]

Compound: COc1cc([C@@H]2c3cc4c(cc3[C@@H](Nc3ccc(F)cc3)[C@H]3COC(=O)[C@H]23)OCO4)cc(OC)c1O
ID50 [5]: 50000 nM | inhibition [6]: 139%

Compound: Cc1cnc2[nH]c(-c3cccc(Cl)c3)cc(=O)c2c1
GI50 [4]: 269 nM | TGI [4]: 72400 nM

Compound: COc1cccc(-c2cc(=O)c3ccc(C)nc3[nH]2)c1
GI50 [4]: 269 nM | TGI [4]: 72400 nM

Compound: Cc1cnc2[nH]c(-c3cccc(F)c3)cc(=O)c2c1
GI50 [4]: 269 nM | TGI [4]: 72400 nM

EC50 [1]: 0.8 µg/mL
Compound: COc1cc2c(c(OC)c1OC)-c1c(cc3c(c1OC)OCO3)C[C@@H](C)[C@@H](C)C2 [KADSURANIN]

EC50 [1]: 0.0039 µg/mL
Compound: CC1(C)CC[C@]2(C(=O)O)CC[C@]3(C)C(=CC[C@@H]4[C@@]5(C)CC[C@H](OC(=O)CC(C)(C)C(=O)O)C(C)(C)[C@@H]5CC[C@]43C)[C@H]2C1

Compound: CC[C@@]1(O)C(=O)OCc2c1cc1n(c2=O)Cc2c-1nc1ccccc1c2/C=N/c1ccccc1N[C@@H]1c2cc3c(cc2[C@@H](c2cc(OC)c(O)c(OC)c2)[C@H]2C(=O)OC[C@@H]21)OCO3
LD50 (Mus musculus): > 50 mg/kg/day

Compound: COC(=O)[C@@]12OC[C@]34[C@H](OC(=O)C[C@@H]13)[C@H](OC(=O)C=C(C)C)[C@H]1C(C)=C(O[C@@H]3O[C@H](CO)[C@@H](O)[C@H](O)[C@H]3O)C(=O)C[C@]1(C)[C@H]4[C@@H](O)[C@@H]2O [BRUCEOSIDE C]
EC50 (KB): < 0.1 µg/mL | EC50 (RPMI-7951): < 0.1 µg/mL
